The text below walks through data of article PMC12444550, “Design, Synthesis, and Trypanosomicidal Evaluation of Eugenol-Based Azole Hybrids: Discovery of an In Vitro Active and Selective Compound” (ACS Omega, 2025).

Data set [1] relates to T. cruzi intracellular amastigote forms. The settings on record: in vitro; cited from earlier work.
In data set [2] the test system is T. cruzi epimastigotes. Also noted: method as in Brancaglion and coauthors. The settings on record: ref Brancaglion and coauthors; read-out: in vitro IC50 against epimastigotes; cited from earlier work.
Data set [3] concerns T. cruzi Y strain trypomastigote forms. Description: Anti-T. cruzi activity against trypomastigote forms. The following applies: Trypanosoma cruzi, 24 h, 24 h of incubation; Y strain; read-out: Y strain T. cruzi EC50 Trypomastigote. Type of data set: cell-based. On the procedure: The T. cruzi Y strain was selected for this study due to its known partial sensitivity to benznidazole chemotherapy.
Trypomastigote forms of T. cruzi (2.5 × 10^5 parasites/well) were incubated in 96-well plates with serial dilutions of the hybrid compounds (100, 50, 25, and 12.5 μmol·L^–1) for 24 h at 37 °C in a humidified 5% CO2 atmosphere. Following incubation, parasite viability was assessed under an optical microscope by evaluating motility, and the number of live parasites was quantified using a Neubauer chamber. Untreated parasite cultures were maintained in parallel as negative controls. The mortality percentage was calculated by comparing the number of live parasites in treated wells to that of untreated controls. All experiments were conducted in triplicate with at least two technical replicates per concentration. EC50 values were determined by nonlinear regression using GraphPad Prism 8 and CompuSyn software (Biosoft, U.K.).

The subject of data set [4] is Trypanosoma cruzi. The following applies: cited from earlier work.

Regarding `CC[C@@H]([C@H](C)O)n1ncn(-c2ccc(N3CCN(c4ccc(OC[C@@H]5CO[C@@](Cn6cncn6)(c6ccc(F)cc6F)C5)cc4)CC3)cc2)c1=O` [posaconazole], the “inhibitory concentration against intracellular amastigotes (in words)” value in data set [1] is “subnanomolar concentrations”.

Consider `C[C@@H](c1nc(-c2ccc(C#N)cc2)cs1)[C@](O)(Cn1cncn1)c1ccc(F)cc1F` [ravuconazole], for which the “inhibitory concentration against intracellular amastigotes (in words)” value in data set [1] was “subnanomolar concentrations”.

As to `CCCc1cc(OC)c2oc(=O)c(C(=O)c3ccc([N+](=O)[O-])cc3)cc2c1` [nitrobenzoyl derivative, 8-methoxy-3-(4-nitrobenzoyl)-6-propyl-2H-cromen-2-one], the IC50 (in general, the concentration needed to halve the response being measured) in data set [2] was 28 µM.

Consider `O=C(Cn1ccnc1[N+](=O)[O-])NCc1ccccc1` [Bz, benznidazole], for which the EC50 (usually the concentration at which the effect is half-maximal) in data set [3] was 21 µM. Further, in data set [4] (acute or early congenital infections), the parasitological cure rates is recorded as 80–90%. Besides, the “treatment discontinuation due to adverse effects” value in data set [4] (dermatological, gastrointestinal and neurological symptoms) is on record as 10–20 % of patients.
